Experimental data as given in patent US20190231757A1, “COMBINATION OF SPLEEN TYROSINE KINASE INHIBITORS AND OTHER THERAPEUTIC AGENTS” (Takeda Pharmaceutical Company Limited, priority 2016, published 2019).
Where a name gives a salt, the structure may show the parent alone.

Columns and labels:
[1] = Body weight and tolerability, WSU-Luc ibrutinib study (Example 12); assay type: in vivo, mouse; conditions: alone or combined
Method: Tumor growth was monitored with vernier calipers. Tumor volume was calculated using the formula V=W^2×L/2, where V=volume, W=width and L=length of the tumor. When the mean tumor volume reached approximately 190 mm^3, the animals were randomized into treatment groups (n=8/group). […] Tumor growth and body weight were measured twice per week. Tumor growth inhibition and body weight change were calculated on Day 20 of treatment.

[2] = test system: OCI-LY10 xenografts; assay: Antitumor activity in CB17 SCID mice bearing OCI-LY10 xenografts, gemcitabine combination (Example 7); assay type: in vivo, mouse; conditions: Day 21, alone or combined
Method: Tumor growth inhibition was calculated on Day 21 of the study. The last measurement was taken on Day 42 of the study.
(§1) Experimental design: Female CB17 SCID mice (Taconic Biosciences; weight at treatment start was 20 g) were inoculated subcutaneously in the flank (cell suspension) with 4.0×10^6 OCI-Ly10 cells. Tumor volume was calculated using the formula V=W^2×L/2, where V=volume, W=width and L=length of the tumor. When the mean tumor volume reached approximately 199 mm^3, the animals were randomized into 6 treatment groups (n=8/group). […] Tumor growth and body weight were measured twice per week. Tumor growth inhibition and body weight change were calculated on Day 21 of treatment.
(§2) Statistical analysis: The differences in the tumor growth trends over time between pairs of treatment groups were assessed using linear mixed effects regression models. These models account for the fact that each animal was measured at multiple time points. A separate model was fit for each comparison, and the areas under the curve (AUC) for each treatment group were calculated using the predicted values from the model. The percent decrease in AUC (dAUC) relative to the reference group was then calculated. […] Further details regarding pairwise comparisons are provided in the Example 2.
(§3) Drug combinations were assessed for synergy using observed AUC values. The change in AUC relative to the control was calculated for both single agent treatment groups as well as the combination group. The interaction between the two compounds was then assessed by comparing the change in AUC observed in the combination group to the sum of the changes observed in both single agents. The results can be divided into four categories: synergistic, additive, sub-additive, and antagonistic. Further details regarding combination analyses are provided in the Example 2.
(§4) Once a final analysis was selected, the tumor measurements observed on a date pre-specified by the researcher (typically the last day of treatment) were analyzed to assess tumor growth inhibition. For this analysis, a T/C ratio was calculated for each animal by dividing the tumor measurement for the given animal by the mean tumor measurement across all control animals. The T/C ratios across a treatment group were compared to the T/C ratios of the control group using a two-tailed Welch's t-test.

[3] = test system: Ly19 human lymphoma xenografts; assay: Antitumor activity in SCID mice bearing Ly19 xenografts, rituximab combination (Example 14); assay type: in vivo, mouse; conditions: alone or combined
[4] = test system: TMD8 DLBCL xenografts; assay: Antitumor activity in CB17 SCID mice bearing TMD8 DLBCL xenografts, ABT-199 or gemcitabine combination (Example 9); assay type: in vivo, mouse; conditions: Day 14, alone or combined with Compound A
Method: Tumor growth inhibition was calculated on Day 14 of the study. The last measurement was taken on Day 29 of the study.
as §1, with “about 19” for “20”, “5.0×10^6 TMD8” for “4.0×10^6 OCI-Ly10”, “cells. Tumor growth was monitored with vernier calipers.” for “cells.”, “245” for “199”, “14” for “21”
as §2, §3, §4

[5] = Body weight and tolerability, OCI-LY10 gemcitabine study (Example 7); assay type: in vivo, mouse; conditions: alone or combined
Method: as §1

[6] = test system: TMD8 DLBCL xenografts; assay: Antitumor activity in CB17 SCID mice bearing TMD8 DLBCL xenografts, gemcitabine combination (Example 8); assay type: in vivo, mouse; conditions: Day 14, alone or combined
Method: Tumor growth inhibition was calculated on Day 14 of the study. The last measurement was taken on Day 40 of the study.
as §1, with “19” for “20”, “5.0×10^6 TMD8” for “4.0×10^6 OCI-Ly10”, “cells. Tumor growth was monitored with vernier calipers.” for “cells.”, “215” for “199”, “into” for “into 6”, “14” for “21”
as §2
as §3, with “analysis” for “analyses”
as §4

[7] = Body weight and tolerability, OCI-LY10 ABT-199 study (Example 11); assay type: in vivo, mouse; conditions: alone or combined
Method: as §1, with “(Charles River Laboratories, about 21 g” for “(Taconic Biosciences; weight”, “start)” for “start was 20 g)”, “cells. Tumor growth was monitored with vernier calipers.” for “cells.”, “175” for “199”, “into” for “into 6”, “(n=5/group).” for “(n=8/group).”

[8] = Clinical activity in a recent study (response-evaluable subjects); assay type: in vivo; conditions: 3 DLBCL PR, 1 FL CR, 2 FL SD
[9] = Body weight and tolerability, TMD8 ABT-199/gemcitabine study (Example 9); assay type: in vivo, mouse; conditions: alone or combined with Compound A
Method: as §1, with “about 19” for “20”, “5.0×10^6 TMD8” for “4.0×10^6 OCI-Ly10”, “cells. Tumor growth was monitored with vernier calipers.” for “cells.”, “245” for “199”, “14” for “21”

[10] = Compound A 60 mg/kg PO QD, gemcitabine 2.5 mg/kg IP Q3D
[11] = Compound A 60 mg/kg, gemcitabine 2.5 mg/kg
[12] = Day 14, Compound A 60 mg/kg PO QD x14, rituximab 10 mg/kg IV QW x2
[13] = Compound A 60 mg/kg, ABT-199 25 mg/kg, gemcitabine 5 mg/kg

Structure (SMILES): Cn1cc(-c2nc(N[C@@H]3CCCC[C@@H]3N)c(F)c3c2C(=O)NC3)cn1 [Compound A, 6-((1R,2S)-2-aminocyclohexylamino)-7-fluoro-4-(1-methyl-1H-pyrazol-4-yl)-1H-pyrrolo[3,4-c]pyridine-3 (2H)-one citrate]
- % BW Change (Day Maximum) ([1]; Compound A 60 mg/kg PO QD 21 d, ibrutinib 20 mg/kg PO QD 21 d): 11.6 (20) %
- Number of animals removed ([1]; Compound A 60 mg/kg, ibrutinib 20 mg/kg): 0
- Mean Tumor Volume (mm^3) ± SEM [2, 10]: 409.4 ± 55.2 mm^3
- TGI (%) [2, 10]: 65.5%
- T/C [2, 11]: 0.35
- Mean Tumor Volume (mm^3) ± SEM at Day 14 [3, 12]: 1594.0 ± 115.6 mm^3
- TGI (%) [3, 12]: 36.6%
- dAUC ([3]; vs vehicle, Compound A 60 mg/kg, rituximab 10 mg/kg): 11.5
- TGI (%) ([4]; Compound A 60 mg/kg PO QD, ABT-199 25 mg/kg PO QD, gemcitabine 5 mg/kg IP Q3D x4): 25.7%
- Mean Tumor Volume (mm^3) ± SEM [4, 13]: 1,100.2 ± 134.5 mm^3
- T/C [4, 13]: 0.74
- % BW Change (Day Maximum) ([5]; Compound A 60 mg/kg PO QD 21 d, gemcitabine 2.5 mg/kg IP Q3D (4 doses)): 6.8 (21) %
- Number of animals removed [5, 11]: 0
- Mean Tumor Volume (mm^3) ± SEM ([6]; Compound A 60 mg/kg PO QD, gemcitabine 5 mg/kg IP Q3D x4): 957.2 ± 82.2 mm^3
- T/C ([6]; Compound A 60 mg/kg, gemcitabine 5 mg/kg): 1.07
- % BW Change (Day Maximum) ([7]; Compound A 60 mg/kg PO QD 21 d, ABT-199 12.5 mg/kg PO QD 21 d): −0.0 (3) %
- Number of animals removed ([7]; Compound A 60 mg/kg, ABT-199 12.5 mg/kg): 0
- response-evaluable subjects who responded to treatment [8]: 6 of the 20
- % BW Change (Day Maximum) ([9]; Compound A 60 mg/kg PO QD 14 d, ABT-199 25 mg/kg PO QD 14 d, gemcitabine 5 mg/kg IP Q3D x4): 7.9 (14) %
- Number of animals removed [9, 13]: 0
